Earlier results as cited in article PMC7395068, “The evolution of strategies to minimise the risk of human drug-induced liver injury (DILI) in drug discovery and development” (Archives of Toxicology, 2020).
Where two headings read alike, the source gives them in different places.

Assays:
[1] = tested on: rBsep; details: In vitro Assay; ref Dawson 2012; cited from earlier work
[2] = cited from earlier work
[3] = tested on: primary human hepatocytes, NIH3T3 fibroblasts, BSEP, CYP3A4; details: In vitro Assay; ref Schadt 2015; cited from earlier work
[4] = cited from earlier work; remark: listed apart in the source
[5] = tested on: THLE-Null and THLE-3A4 cells; details: In vitro Assay; ref Gustafsson 2014; cited from earlier work
[6] = tested on: isolated mouse liver mitochondria; details: In vitro Assay; ref Porceddu 2012; cited from earlier work
[7] = tested on: human hepatocytes; details: In vitro Assay; ref Xu 2008; cited from earlier work
[8] = tested on: PHH spheroids; details: In vitro Assay; ref Vorrink 2018; cited from earlier work
[9] = cited from earlier work; remark: listed apart in the source
[10] = tested on: THLE or HepG2 cells, isolated mitochondria, BSEP; details: In vitro Assay; ref Aleo 2019; cited from earlier work
[11] = tested on: HepG2 cells, primary human hepatocytes; details: In vitro Assay; ref Garside 2014; cited from earlier work
[12] = tested on: HepG2 cells; details: In vitro Assay; ref Persson 2013; cited from earlier work
[13] = tested on: HepG2 cells; details: In vitro Assay; ref O'Brien 2006; cited from earlier work

In the case of `Nc1nc2c(ncn2COCCO)c(=O)[nH]1` [acyclovir], the “Inhibition of rBsep cutoff<1& cmax u>.2” value [1] is listed as “-VE”, the “Inhibition of rBsep cutoff<3” value [1] is listed as “-VE” and the “DILI +VE (5-8), DILI -VE (-4)” value ([2]; in vivo) is listed as “+VE”. For the same molecule, the DILI severity category ([2]; in vivo) was “vLess-DILI-Concern”, the “Cellular toxicity (3T3 cells)” value [3] was “-VE” and the “Combined Assay” value [3] was “-VE”. The “GSH adduct HML” value [3] was “-VE”, the Hepatocyte cellular toxicity [3] was “-VE” and the “MitoTox 3T3” value [3] was “-VE”. The “TDI CYP3A4” value [3] was “-VE”, the hBSEP inhibition [3] was “-VE” and the “DILI Score (FDA) (1-8)” value ([4]; in vivo) was 5. For the same molecule, the THLE-Null [5] was “-VE”.
For `NC12CC3CC(CC(C3)C1)C2` [amantadine], the “DILI +VE (5-8), DILI -VE (-4)” value ([2]; in vivo) is listed as “-VE”, the DILI severity category ([2]; in vivo) is listed as “Ambiguous DILI-concern” and the “in vitro data EC2<=1x Cmax” value [6] is listed as “-VE”. The “Structural based (HCI)” value [7] was “-VE”, the “DILI Score (FDA) (1-8)” value ([4]; in vivo) was 3 and the “hLiMTs ATP <20 x Cmax” value [8] was “-VE”. For the same molecule, the “In vivo DILI” value ([9]; in vivo) was “-VE”.
In the case of `CC1(C)S[C@@H]2[C@H](NC(=O)[C@H](N)c3ccc(O)cc3)C(=O)N2[C@H]1C(=O)O` [amoxicillin], the “Inhibition of rBsep cutoff<1& cmax u>.2” value [1] is given as “-VE”, the “Inhibition of rBsep cutoff<3” value [1] is given as “-VE” and the “DILI +VE (5-8), DILI -VE (-4)” value ([2]; ref Chen 2016) is given as “+VE”. For the same molecule, the DILI severity category ([2]; ref Chen 2016) was “vLess-DILI-Concern”, the “in vitro data EC2<=1x Cmax” value [6] was “+VE” and the “in vitro data EC20<=2uM” value [6] was “+VE”. The “DILI Score (FDA) (1-8)” value ([4]; ref Chen 2011) was 3, the “Partition Hybrid HRM Score” value [10] was “-VE” and the “Ro2 Hybrid HRM Score” value [10] was “-VE”. For the same molecule, the THLE-Null [5] was “-VE”, the “In vivo DILI” value ([9]; […]) was “-VE” and the “In vivo DILI” value ([9]; ref Aleo 2019) was “+VE”. For the same molecule, the “In vivo DILI” value ([9]; ref Dawson 2012) was “-VE”, the “In vivo DILI” value ([9]; ref Garside 2014) was “+VE” and the “In vivo DILI” value ([9]; ref Gustafsson 2014) was “+VE”. For the same molecule, the “In vivo DILI” value ([9]; ref Porceddu 2012) was “+VE” and the “In vivo DILI” value ([9]; ref Schadt 2015) was “-VE”.
For `CC(O)(CS(=O)(=O)c1ccc(F)cc1)C(=O)Nc1ccc(C#N)c(C(F)(F)F)c1` (stereo not drawn) [bicalutamide], the “DILI +VE (5-8), DILI -VE (-4)” value ([2]; ref Chen 2016) is listed as “+VE”, the DILI severity category ([2]; ref Chen 2016) is listed as “vMost-DILI-Concern” and the “Cluster 1-6 +VE Assay” value [11] is listed as “+VE”. For the same molecule, the Cluser analysis [12] was “-VE”, the “Structural based (HCI)” value [12] was “+VE” and the “Structural based (HCI)” value [7] was “-VE”. For the same molecule, the “DILI Score (FDA) (1-8)” value ([4]; ref Chen 2011) was 8, the “In vivo DILI” value ([9]; ref Aleo 2019) was “+VE” and the “In vivo DILI” value ([9]; ref Garside 2014) was “+VE”. For the same molecule, the “In vivo DILI” value ([9]; ref Persson 2013) was “+VE” and the “In vivo DILI” value ([9]; ref Xu 2008) was “+VE”.
In the case of `OC(Cn1cncn1)(Cn1cncn1)c1ccc(F)cc1F` [fluconazole], the “DILI +VE (5-8), DILI -VE (-4)” value ([2]; ref Chen 2016) is given as “+VE”, the DILI severity category ([2]; ref Chen 2016) is given as “vMost-DILI-Concern” and the “in vitro data EC2<=1x Cmax” value [6] is given as “+VE”. For the same molecule, the “in vitro data EC20<=2uM” value [6] was “-VE”, the “Structural based (HCI)” value [7] was “-VE” and the “DILI Score (FDA) (1-8)” value ([4]; ref Chen 2011) was 8. For the same molecule, the “Ro2 Hybrid HRM Score” value [10] was “-VE”, the “hLiMTs ATP <20 x Cmax” value [8] was “-VE” and the “In vivo DILI” value ([9]; […]) was “+VE”. For the same molecule, the “In vivo DILI” value ([9]; ref Aleo 2019) was “+VE”, the “In vivo DILI” value ([9]; ref Porceddu 2012) was “+VE” and the “In vivo DILI” value ([9]; ref Vorrink 2018) was “+VE”. The “In vivo DILI” value ([9]; ref Xu 2008) was “+VE”.
For `CC(C)Cc1ccc(C(C)C(=O)O)cc1` (stereo not drawn) [ibuprofen], the “Inhibition of rBsep cutoff<1& cmax u>.2” value [1] is given as “-VE”, the “Inhibition of rBsep cutoff<3” value [1] is given as “+VE” and the “DILI +VE (5-8), DILI -VE (-4)” value ([2]; in vivo) is given as “+VE”. For the same molecule, the DILI severity category ([2]; in vivo) was “vLess-DILI-Concern”, the “Structural based (HCI)” value [13] was “+VE” and the “Cellular toxicity (3T3 cells)” value [3] was “-VE”. For the same molecule, the “Combined Assay” value [3] was “-VE”, the “GSH adduct HML” value [3] was “-VE” and the Hepatocyte cellular toxicity [3] was “-VE”. For the same molecule, the “MitoTox 3T3” value [3] was “-VE”, the “TDI CYP3A4” value [3] was “-VE” and the hBSEP inhibition [3] was “-VE”. The “in vitro data EC2<=1x Cmax” value [6] was “+VE”, the “in vitro data EC20<=2uM” value [6] was “+VE” and the “Structural based (HCI)” value [12] was “+VE”. The “DILI Score (FDA) (1-8)” value ([4]; in vivo) was 3 and the THLE-Null [5] was “-VE”.
In the case of `CC1=C(/C=C/C(C)=C/C=C/C(C)=C\C(=O)O)C(C)(C)CCC1` [isotretinoin], the “DILI +VE (5-8), DILI -VE (-4)” value ([2]; ref Chen 2016) is given as “+VE”, the DILI severity category ([2]; ref Chen 2016) is given as “vMost-DILI-Concern” and the “Structural based (HCI)” value [13] is given as “-VE”. The “Cluster 1-6 +VE Assay” value [11] was “+VE”, the “Structural based (HCI)” value [7] was “+VE” and the “DILI Score (FDA) (1-8)” value ([4]; ref Chen 2011) was 2. For the same molecule, the “In vivo DILI” value ([9]; ref Garside 2014) was “+VE”, the “In vivo DILI” value ([9]; ref O'Brien 2006) was “+VE” and the “In vivo DILI” value ([9]; ref Xu 2008) was “+VE”.
In the case of `O=C(c1ccccc1)c1ccc2n1CCC2C(=O)O` (stereo not drawn) [ketorolac], the “DILI +VE (5-8), DILI -VE (-4)” value ([2]; ref Chen 2016) is given as “+VE”, the DILI severity category ([2]; ref Chen 2016) is given as “vLess-DILI-Concern” and the “Structural based (HCI)” value [13] is given as “-VE”. The Cluser analysis [12] was “-VE”, the “Structural based (HCI)” value [12] was “-VE” and the “Structural based (HCI)” value [7] was “-VE”. For the same molecule, the “DILI Score (FDA) (1-8)” value ([4]; ref Chen 2011) was 3, the “Partition Hybrid HRM Score” value [10] was “-VE” and the “Ro2 Hybrid HRM Score” value [10] was “-VE”. For the same molecule, the “hLiMTs ATP <20 x Cmax” value [8] was “+VE (IC20 < 20 × Cmax.tot cut-off)”, the “In vivo DILI” value ([9]; ref Aleo 2019) was “+VE” and the “In vivo DILI” value ([9]; ref O'Brien 2006) was “+VE”. The “In vivo DILI” value ([9]; ref Persson 2013) was “+VE”, the “In vivo DILI” value ([9]; ref Vorrink 2018) was “+VE” and the “In vivo DILI” value ([9]; ref Xu 2008) was “+VE”.
